Assay results: US8486381B2, “Methods of modulating intestinal fluid balance” (Amgen Inc., priority 2005, dated 2013)
Entries after “also recorded” stand apart in the source; their conditions may differ. Structures can show the parent of a compound that is named as a salt. Where two headings read alike, the source gives them in different places.

Experiments:
[1] = system: isolated rat colonic crypts; test: Net fluid movement (Jv) in in vitro perfused rat colonic crypts; type: cell-based; conditions: for EC50: Rattus norvegicus, read-out: EC50, attenuation of forskolin-induced net fluid secretion, forskolin 10 μM, 0.1 mM Ca^2+; for Effect on net fluid secretion in presence of forskolin and PLC inhibitor U73122: U73122 10 μM, 0.1 mM calcium
cyclic AMP = test: Secretagogue-stimulated cyclic AMP accumulation in colonic crypt cell suspensions; type: cell-based
[2] = system: colonic crypts from Casr^+/+:Gcm2^+/+ mice; test: Net Jv in perfused colonic crypts from wild type mice; type: cell-based; conditions: for Effect on net fluid secretion induced by Guanylin and CTX: Casr^+/+:Gcm2^+/+
[3] = system: colonic crypts from Casr^−/−:Gcm2^−/− mice; test: Net Jv in perfused colonic crypts from CaSR null mice; type: cell-based; conditions: for Effect on net fluid secretion induced by Guanylin and CTX: Casr^−/−:Gcm2^−/−
[4] = system: basolateral Cl^− entry into colonic crypt cells via NKCCl; test: Cell Cl^− influx measurements (MQAE fluorescence) in colonic crypts; type: cell-based, rat
Experimental: Cl^− Measurements. Cell Cl^− influx measurements (Egan, M. E. et al. Nat. […] Molecular Probes]. After dye loading, crypts were incubated in a Cl^− free HEPES buffer until stable high baseline fluorescence intensity was achieved. Rates of cell Cl^− influx were monitored as rates of reductions in arbitrary MQAE fluorescent units (ΔAFU/min; Ex: 346 nm; EM: 460 nm).

rat colonic crypts = test: Absorptive fluid movement (netJv with secretion inhibited) in perfused rat colonic crypts; type: cell-based
[5] = system: apical NHE (Na^+/H^+ exchanger); test: NHE activity: Na^+-dependent proton extrusion from colonocytes; type: cell-based, rat; conditions: forskolin present
Description: Cyclic nucleotide-dependent fluid loss in secretory […] occurs through reduction in absorptive, and increases in secretory, processes. Lucas, M. L. J. Appl. Microbiol. 90, 7-26, 2001; Golin-Bisello, F. et al. Am. J. Cell. Physiol. 289, […]-[…], 2005. Colonic epithelial crypts provide a model for understanding intestinal fluid transport as they simultaneously absorb and secrete fluid with the direction of net fluid movement (^netJv) depending on the relative magnitudes of these two processes. A major component of fluid absorption in the colon is mediated by parallel Na^+/H^+ (sodium-hydrogen exchanger, NHE) and Cl^-/HCO3^- exchange located at the apical plasma membranes. Kunzelman, K. et al. Physiol. Rev. 82, 245-289, 2002; Donowith, M. et al. Annu. Rev. Physiol. 48, 135-150, 1986. Cyclic nucleotides reduce this Na^+-dependent fluid absorption by inhibiting NHE activity. […] This basal fluid was likely due to the low levels of cell cyclic nucleotides that remain even in the absence of secretagogues. […] To examine if this latter effect of CaSR agonists on fluid absorption resulted from enhanced apical NHE activity, the effects of Ca^2+ on Na^+-dependent proton extrusion from colonocytes were assessed in the presence of forskolin. […] Cell acid loading was accomplished by exposure to NH4Cl and Na^+-dependent cell pH recovery following removal of NH4Cl was assessed as an index of Na^+/H^+ activity. […]

[6] = system: proximal and distal colon crypts; type: cell-based, Sprague-Dawley rats
BALB/c mice [7] = conditions: mouse, in vivo
BALB/c mice [8] = conditions: mouse, in vivo; remark: listed apart in the source
cyclic GMP = test: Secretagogue-stimulated cyclic GMP accumulation in colonic crypt cell suspensions; type: cell-based; conditions: IBMX 1 mM
[9] = system: proximal or distal colon segments; type: cell-based, Sprague-Dawley rats
[10] = extracellular calcium raised from 0.1 mM to 2 mM

## [Ca+2] [Ca^2+]
[1]
  Effect on net fluid secretion induced by Guanylin or STa: reversed net fluid secretion
  Effect on net fluid secretion induced by forskolin or cholera toxin: reversed net fluid secretion
Cyclic AMP
  Effect on forskolin or cholera toxin induced cyclic AMP production: attenuates
[2]; [10]
  Effect on net fluid secretion induced by Guanylin and CTX: reversed net fluid secretion
[3]; [10]
  Effect on net fluid secretion induced by Guanylin and CTX: did not
[4]; calcium increased from 0.1 to 2 mM
  Effect on Cl^− entry via NKCCl in the presence of CTX: inhibited Cl^− entry
Rat colonic crypts; extracellular Ca^2+ increased to 2 mM
  Effect on cAMP-mediated reduction in fluid absorption: significantly abrogated
[5]; basolateral bath Ca^2+ raised from 0.1 to 2 mM
  Increase in NHE activity: 8 fold

## COc1cccc([C@@H](C)NCCCc2ccccc2Cl)c1.Cl [Compound A, N-(3-[2-chlorophenyl]-propyl)-R-α-methyl-3-methoxybenzylamine HCl]
[1]; compound in bath
  EC50: 0.0051 nM
[1]; compound in lumen
  EC50: 0.0234 nM
[1]; compound added to both luminal and bath
  Effect on net fluid secretion in presence of forskolin and PLC inhibitor U73122: did not completely reverse net fluid secretion
[1]; compound added to lumen or bath
  Effect on net fluid secretion in presence of forskolin and PLC inhibitor U73122: had no significant effect on reversing net fluid secretion
[2]; 100 nM, 0.1 mM calcium
  Effect on net fluid secretion induced by Guanylin and CTX: effectively reversed net fluid secretion
[3]; 100 nM, 0.1 mM calcium
  Effect on net fluid secretion induced by Guanylin and CTX: did not reverse net fluid secretion
[4]; 100 nM in basolateral fluid
  Effect on rate of forskolin-stimulated Cl^− entry: significantly reduced
Rat colonic crypts; added to basolateral bath in the presence of 0.5 mM calcium
  Effect on cAMP-mediated reduction in fluid absorption: significantly abrogated
[5]; Compound A added to the 2 mM Ca^2+-containing bath
  Increase in NHE activity: 12 fold
[6]
  Effect on forskolin-induced net fluid secretion in presence of TTX: attenuated forskolin-induced net fluid secretion

## COc1cccc(C(C)NCCCc2ccccc2Cl)c1 (stereo not drawn) [Compound A, S-stereoisomer, N-(3-[2-chlorophenyl]-propyl)-α-methyl-3-methoxybenzylamine HCl]
[1]; compound in bath
  EC50: 0.619 nM
[1]; compound in lumen
  EC50: 0.756 nM

## COc1ccc(CNC(C)c2ccccc2)cc1-c1ccc(C(F)(F)F)cc1 (stereo not shown) [Compound B, N-((6-(methyloxy)-4′-(trifluoromethyl)-1,1′-biphenyl-3-yl)methyl)-1-phenylethanamine]
BALB/c mice [7]
  Cholera toxin-induced gastrointestinal fluid accumulation: statistically significant reduction
BALB/c mice [8]
  Mortality 24 hrs (moribund): 2/5
  Volume of fluid accumulating in the small intestine: dose-dependent reduction

## Cn1c(NC[C@@H](N)Cc2ccccc2)nc(-c2ccncc2)c(-c2ccc3ccccc3c2)c1=O [Compound C, 2-(((2S)-2-amino-3-phenylpropyl)amino)-3-methyl-5-(2-naphthalenyl)-6-(4-pyridinyl)-4(3H)-pyrimidinone]
BALB/c mice [8]; female, BALB/c
  Mortality: 100%

## CC(C)Cn1c(=O)n(C)c(=O)c2[nH]cnc21 [IBMX, 3-Isobutyl-1-Methylxanthine]
Cyclic AMP; IBMX added (1 mM per method)
  Effect on attenuation of cyclic AMP production by 2.0 mM Ca^2+: reverses this effect
Cyclic GMP
  Effect on attenuation of cyclic GMP production by 2.0 mM Ca^2+: reverses this effect

## NC1=N[C@H](O)[C@H]2[C@H]3O[C@]4(O)O[C@@H]([C@@H](O)[C@@]2(N1)[C@@H]4O)[C@]3(O)CO [TTX, tetrodotoxin]
[6]
  Effect on forskolin-induced net fluid secretion: did not change the ability of forskolin to induce a net fluid secretion
[9]
  Effect on ability of calcimimetics to reverse forskolin-stimulated increase in Isc: abolished

## CCCCNc1cc(C(=O)O)cc(S(N)(=O)=O)c1Oc1ccccc1 [bumetanide]
[4]; 100 μM basolateral
  Effect on forskolin-stimulated increase in cell Cl^−: abolished
Rat colonic crypts; added to basolateral bath
  netJv in the absence of secretagogues: increased the positive or absorptive ^netJv

## CCCC(=O)Nc1ncnc2c1ncn2[C@@H]1O[C@@H]2COP(=O)(O)O[C@H]2[C@H]1OC(=O)CCC [db-cyclic AMP, dibutyryl-cAMP]
Rat colonic crypts; in the presence of bumetanide
  Absorptive fluid movement: substantially reduced

## C=C[C@@]1(C)CC(=O)[C@]2(O)[C@@]3(C)[C@@H](O)CCC(C)(C)[C@@H]3[C@H](O)[C@H](OC(C)=O)[C@@]2(C)O1 [forskolin]
[6]
  Mean Jv, distal colonic crypts: −0.33±0.01 nL/min/mm
  Mean Jv, proximal colonic crypts: −0.32±0.02 nL/min/mm

## Guanylin
[1]
  Net fluid movement (Jv) on exposure to secretagogue: induced net fluid secretion
[2]
  Net fluid movement (Jv) on exposure to secretagogue: induced net fluid secretion
[3]
  Net fluid movement (Jv) on exposure to secretagogue: induced net fluid secretion

## cholera toxin
[1]
  Net fluid movement (Jv) on exposure to secretagogue: induced net fluid secretion
Cyclic AMP
  cAMP production on exposure to secretagogue: induce cAMP production; also recorded: induce cyclic AMP production
[2]
  Net fluid movement (Jv) on exposure to secretagogue: induced net fluid secretion
[3]
  Net fluid movement (Jv) on exposure to secretagogue: induced net fluid secretion
